The values that follow come from the supplement of paper PMC10307832.

Experiment in all cases: relative viability (nuclei count vs DMSO), 5 days (fraction); higher = more cells survive
Compound in the experiment “Vismodegib + Foretinib”: CS(=O)(=O)c1ccc(C(=O)Nc2ccc(Cl)c(-c3ccccn3)c2)c(Cl)c1 [Vismodegib] + COc1cc2c(Oc3ccc(NC(=O)C4(C(=O)Nc5ccc(F)cc5)CC4)cc3F)ccnc2cc1OCCCN1CCOCC1 [Foretinib] (partner 0.25 µM)
The method, boiled down:
(§1)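 Medians of duplicate plates are given as relative viability. That measure is the nuclei count in treated wells divided by the count in vehicle wells. Counts were taken on 4× images of lung cancer cell lines in 1536-well plates, 5 days after pin-tool dosing the day after seeding with one drug alone or a fixed anchor-drug dose plus five library-drug doses (not always all listed) in √10 steps.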

Compound in the experiment “Vismodegib + Linsitinib”: CS(=O)(=O)c1ccc(C(=O)Nc2ccc(Cl)c(-c3ccccn3)c2)c(Cl)c1 [Vismodegib] + C[C@]1(O)C[C@@H](c2nc(-c3ccc4ccc(-c5ccccc5)nc4c3)c3c(N)nccn32)C1 [Linsitinib] (partner 1 µM)
The method, boiled down: as §1

Compound in the experiment “Ruxolitinib + Tozasertib”: N#CC[C@H](C1CCCC1)n1cc(-c2ncnc3[nH]ccc23)cn1 [Ruxolitinib] + Cc1cc(Nc2cc(N3CCN(C)CC3)nc(Sc3ccc(NC(=O)C4CC4)cc3)n2)n[nH]1 [Tozasertib] (partner 0.1 µM)
The gist of the method:
as §1

Compound in the experiment “Ruxolitinib + Alpelisib”: N#CC[C@H](C1CCCC1)n1cc(-c2ncnc3[nH]ccc23)cn1 [Ruxolitinib] + Cc1nc(NC(=O)N2CCC[C@H]2C(N)=O)sc1-c1ccnc(C(C)(C)C(F)(F)F)c1 [Alpelisib] (partner 2 µM)
The method, boiled down: as §1

On to UMC-11, for which the relative viability is 0.996 in the experiment with Vismodegib + Foretinib (first compound 0.08 µM); 0.961 in the experiment with Vismodegib + Foretinib (first compound 0.253 µM); 1.07 with Vismodegib + Foretinib (first compound 0.8 µM); 0.923 with Vismodegib + Foretinib (first compound 2.53 µM); 1.04 with Vismodegib + Foretinib (first compound 8 µM); 0.931 in the experiment with Vismodegib + Linsitinib (first compound 0.08 µM). The relative viability was found to be 0.996 with Vismodegib + Linsitinib (first compound 0.253 µM); 1.06 with Vismodegib + Linsitinib (first compound 0.8 µM); 0.927 with Vismodegib + Linsitinib (first compound 2.53 µM); 1 with Vismodegib + Linsitinib (first compound 8 µM); 0.206 with Ruxolitinib + Tozasertib (first compound 0.08 µM); 0.206 with Ruxolitinib + Tozasertib (first compound 0.253 µM). Moreover, the relative viability with Ruxolitinib + Tozasertib (first compound 0.8 µM) is 0.203; in the experiment with Ruxolitinib + Tozasertib (first compound 2.53 µM) it was 0.214; with Ruxolitinib + Tozasertib (first compound 8 µM), 0.2; in the experiment with Ruxolitinib + Alpelisib (first compound 0.08 µM), 0.869; with Ruxolitinib + Alpelisib (first compound 0.253 µM) it was 1.02; with Ruxolitinib + Alpelisib (first compound 0.8 µM), 1.06. In addition, the relative viability is 1.12 with Ruxolitinib + Alpelisib (first compound 2.53 µM) and 0.938 in the experiment with Ruxolitinib + Alpelisib (first compound 8 µM).
